What all share (type): biochemical
The target in one assay is T1, Human Factor XIIa (Homo sapiens, UniProt P00748).
T1 construct: Proteolytic cleavage of FXII to heavy and light chains of FXIIa dramatically increases catalytic activity; purchased Enzyme Research Laboratories
T1 sequence (P00748 373-615 limits assumed): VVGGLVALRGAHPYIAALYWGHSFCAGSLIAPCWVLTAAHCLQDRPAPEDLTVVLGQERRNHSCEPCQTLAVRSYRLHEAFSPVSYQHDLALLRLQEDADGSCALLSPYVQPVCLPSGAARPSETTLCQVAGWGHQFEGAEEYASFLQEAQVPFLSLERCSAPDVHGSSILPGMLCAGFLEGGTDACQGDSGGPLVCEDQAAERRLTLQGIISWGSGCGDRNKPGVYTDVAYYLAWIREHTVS
T1 sequence (P00748 20-372 partner limits assumed): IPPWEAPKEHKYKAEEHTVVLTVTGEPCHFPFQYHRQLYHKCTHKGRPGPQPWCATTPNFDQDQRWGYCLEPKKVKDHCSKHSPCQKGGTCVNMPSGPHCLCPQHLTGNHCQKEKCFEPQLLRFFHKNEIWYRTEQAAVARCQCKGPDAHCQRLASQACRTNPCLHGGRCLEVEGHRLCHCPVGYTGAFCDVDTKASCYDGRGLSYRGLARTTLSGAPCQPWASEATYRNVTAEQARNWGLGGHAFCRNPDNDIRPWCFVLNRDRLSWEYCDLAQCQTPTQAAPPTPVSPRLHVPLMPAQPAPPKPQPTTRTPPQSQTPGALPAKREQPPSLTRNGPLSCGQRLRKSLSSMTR
Put plainly: Determination of FXIIa inhibition (fluorogenic substrate H-DPro-Phe-Arg-AFC, IC50 assay). Conditions: substrate at Km concentration, 25° C.; category scale; read-out: Human FXII IC50 (nm). In outline:
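Human FXIIa incubated at 25° C. with fluorogenic H-DPro-Phe-Arg-AFC at its Km concentration plus varying compound levels. Linear fluorescence increase over 5 min taken as % activity; IC50 is concentration halving uninhibited activity.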

For a further assay, the target named is KLK1 (Homo sapiens, UniProt P06870). Kind of assay: Related protease inhibition: KLK1 (fluorogenic substrate at Km). Conditions: class symbols per Table 18. As for the experimental part: (§1) In vitro inhibition of related proteases was determined using an IC50 assay based on standard literature methods (see e.g. Shori et al., Biochem. Pharmacol., 1992, 43, 1209; Bouckaert et al., European Journal of Medicinal Chemistry 110 (2016) 181). Human serine protease enzyme Plasma Kallikrein, KLK1, FXa, Plasmin, Thrombin and Trypsin were assayed for enzymatic activity using an appropriate fluorogenic substrate at Km concentration, FXIa at fixed substrate concentration of 100 μM and various concentrations of the test compound. Protease activity was measured by monitoring the accumulation of liberated fluorescence from the substrate over 5 min at 25° C. The linear rate of fluorescence increase per minute was expressed as percentage (%) activity. IC50 values were calculated as the concentration of inhibitor giving 50% inhibition of the uninhibited enzyme activity (100%).
Sequence of KLK1 (P06870 25-262): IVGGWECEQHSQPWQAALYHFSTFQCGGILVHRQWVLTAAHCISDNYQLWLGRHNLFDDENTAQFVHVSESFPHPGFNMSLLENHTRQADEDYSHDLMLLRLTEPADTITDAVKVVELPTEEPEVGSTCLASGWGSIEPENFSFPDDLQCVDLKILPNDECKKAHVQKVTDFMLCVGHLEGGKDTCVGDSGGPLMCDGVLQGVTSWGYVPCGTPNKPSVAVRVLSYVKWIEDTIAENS

A further assay deals with FXa (Homo sapiens, UniProt P00742). Kind of assay: Related protease inhibition: FXa (fluorogenic substrate at Km). To be noted: class symbols per Table 18. As for the experimental part: as §1
Sequence of FXa (P00742 235-488 limits assumed): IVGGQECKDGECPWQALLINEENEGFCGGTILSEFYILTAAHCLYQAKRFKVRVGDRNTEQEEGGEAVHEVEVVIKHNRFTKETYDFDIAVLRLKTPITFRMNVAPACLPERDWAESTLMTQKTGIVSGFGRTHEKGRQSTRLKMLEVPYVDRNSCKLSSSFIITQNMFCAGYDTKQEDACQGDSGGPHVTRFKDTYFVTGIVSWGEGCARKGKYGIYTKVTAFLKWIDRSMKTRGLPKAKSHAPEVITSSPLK
Sequence of FXa (P00742 41-179 partner limits assumed): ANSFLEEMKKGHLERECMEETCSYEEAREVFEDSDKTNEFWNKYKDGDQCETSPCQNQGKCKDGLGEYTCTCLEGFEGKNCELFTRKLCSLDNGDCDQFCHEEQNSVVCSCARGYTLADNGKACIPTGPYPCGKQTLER
The target in a further assay is T2, Plasma Kallikrein (Homo sapiens, UniProt P03952).
T2 construct: FXIIa converts plasma prekallikrein (PK) to plasma kallikrein (PKa)
T2 sequence (P03952 391-638 limits assumed): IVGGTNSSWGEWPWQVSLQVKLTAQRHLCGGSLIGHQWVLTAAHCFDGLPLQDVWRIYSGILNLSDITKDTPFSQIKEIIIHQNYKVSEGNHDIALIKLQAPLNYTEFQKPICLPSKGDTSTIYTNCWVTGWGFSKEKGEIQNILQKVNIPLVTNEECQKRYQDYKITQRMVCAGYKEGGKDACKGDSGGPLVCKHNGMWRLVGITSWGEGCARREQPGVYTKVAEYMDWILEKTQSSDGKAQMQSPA
T2 sequence (P03952 20-390 partner limits assumed): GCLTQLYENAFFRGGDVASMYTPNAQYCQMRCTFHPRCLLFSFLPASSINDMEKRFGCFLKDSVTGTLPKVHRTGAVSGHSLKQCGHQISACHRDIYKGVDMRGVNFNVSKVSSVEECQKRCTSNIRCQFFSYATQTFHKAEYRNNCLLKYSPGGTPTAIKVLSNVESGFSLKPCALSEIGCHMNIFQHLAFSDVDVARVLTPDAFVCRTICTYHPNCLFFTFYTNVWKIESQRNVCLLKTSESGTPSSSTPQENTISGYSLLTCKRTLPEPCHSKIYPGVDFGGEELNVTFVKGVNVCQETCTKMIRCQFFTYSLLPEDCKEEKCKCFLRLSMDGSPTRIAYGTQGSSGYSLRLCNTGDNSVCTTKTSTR
Kind of assay: Related protease inhibition: Plasma Kallikrein (fluorogenic substrate at Km). Conditions: class symbols per Table 18, read-out: IC50 (human PKal). As for the experimental part: as §1

In patent publication US20240327412A1, “FACTOR XIIA INHIBITORS” (KALVISTA PHARMACEUTICALS LIMITED, priority 2021, published 2024) one finds IC50 data, which are given here for 23 compounds.

The IC50 is the concentration needed to halve the response being measured.

As to `Cc1c(OCC23CCOC(CNc4cccc5c(N)nccc45)(C2)C3)ccn2ccnc12` [Example 10923, N5-((5-(((8-methylimidazo[1,2-a]pyridin-7-yl)oxy)methyl)-2-oxabicyclo[3.1.1]heptan-1-yl)methyl)isoquinoline-1,5-diamine], the IC50 on Human Factor XIIa lay in the range of 0.1 to 0.3 µM; at KLK1 it was 0.3 to 1 µM.

As to `Nc1nccc2c(NCC34CC(COc5ccn6cc(C(F)F)nc6c5)(CO3)C4)cccc12` [Example 6613, N5-((4-(((2-(difluoromethyl)imidazo[1,2-a]pyridin-7-yl)oxy)methyl)-2-oxabicyclo[2.1.1]hexan-1-yl)methyl)isoquinoline-1,5-diamine], the values for the IC50 against FXa, at Human Factor XIIa and against KLK1 were 10 to 40 µM, 0.3 to 1 µM and 3 to 10 µM, respectively.

On to `Nc1nccc2c(N3CCC4(CC(COc5ccn6ccnc6c5)C4)C3)cccc12` (stereo not drawn) [Example 8807, 5-(cis*-2-((imidazo[1,2-a]pyridin-7-yloxy)methyl)-6-azaspiro[3.4]octan-6-yl)isoquinolin-1-amine], for which the figures for the IC50 on Human Factor XIIa and against KLK1 were 0.3 to 1 µM and 10 to 40 µM, respectively.

Regarding `Cc1c(OCC23COC(CNc4cccc5c(N)nccc45)(C2)C3)ccc2nccn12` [Example 6626, N5-((4-(((5-methylimidazo[1,2-a]pyridin-6-yl)oxy)methyl)-2-oxabicyclo[2.1.1]hexan-1-yl)methyl)isoquinoline-1,5-diamine], the concentration for half-maximal inhibition (IC50) on Human Factor XIIa was 0.01 to 0.1 µM; against KLK1 it was 1 to 3 µM.

`Cc1cc2nccn2cc1OCC12COC(CNc3cccc4c(N)nccc34)(C1)C2` [Example 6622, N5-((4-(((7-methylimidazo[1,2-a]pyridin-6-yl)oxy)methyl)-2-oxabicyclo[2.1.1]hexan-1-yl)methyl)isoquinoline-1,5-diamine]: the IC50 lay in the range of 0.01 to 0.1 µM at Human Factor XIIa and 1 to 3 µM against KLK1.

As for `c1cc(NCC23CC(COc4ccn5ccnc5c4)(C2)C3)c2cc[nH]c2n1` [Example 1009, N-((3-((imidazo[1,2-a]pyridin-7-yloxy)methyl)bicyclo[1.1.1]pentan-1-yl)methyl)-1H-pyrrolo[2,3-b]pyridin-4-amine], the IC50 is more than 100 µM at Plasma Kallikrein, 10 to 40 µM on Human Factor XIIa and more than 100 µM against KLK1.

For `Clc1ccc2c(NCC34CC(COc5ccn6ccnc6c5)(CCO3)C4)ccnc2c1` [Example 10921, 7-chloro-N-((5-((imidazo[1,2-a]pyridin-7-yloxy)methyl)-2-oxabicyclo[3.1.1]heptan-1-yl)methyl)quinolin-4-amine], the IC50 on Human Factor XIIa lay within 40 to 100 µM; against KLK1 it was 10 to 40 µM.

In the case of `Nc1nccc2c(OCC34CC(CNc5ccc6nccn6c5)(CO3)C4)cccc12` [Example 6619, 5-((4-((imidazo[1,2-a]pyridin-6-ylamino)methyl)-2-oxabicyclo[2.1.1]hexan-1-yl)methoxy)isoquinolin-1-amine], the IC50 at Human Factor XIIa lay in the range of 0.3 to 1 µM; on KLK1, 10 to 40 µM.

Turning to `Clc1cc2c(NCC34CC(COc5ccn6ccnc6c5)(C3)C4)ccnc2[nH]1` [Example 1010], the figures for the IC50 against FXa, at Human Factor XIIa and against KLK1 were 1 to 3 µM, 0.3 to 1 µM and more than 40 µM, respectively.

As for `Nc1ncc(Cl)c2cc(NCC34CC(COc5ccn6ccnc6c5)(CCO3)C4)ccc12` [Example 10922, 4-chloro-N6-((5-((imidazo[1,2-a]pyridin-7-yloxy)methyl)-2-oxabicyclo[3.1.1]heptan-1-yl)methyl)isoquinoline-1,6-diamine], the half-maximal inhibitory concentration (IC50) at Human Factor XIIa and against KLK1 was 0.3 to 1 µM in each case.

On to `Cn1ccc(OCC23CN(C(=O)OCc4ccccc4)C(CNc4ccc5c(N)nccc5c4)(C2)C3)cc1=O` [Example 12010, benzyl 1-(((1-aminoisoquinolin-6-yl)amino)methyl)-4-(((1-methyl-2-oxo-1,2-dihydropyridin-4-yl)oxy)methyl)-2-azabicyclo[2.1.1]hexane-2-carboxylate], for which the values for the IC50 at Human Factor XIIa and against KLK1 were 0.1 to 0.3 µM and 0.01 to 0.1 µM, respectively.

Regarding `Cc1cc(OCC23CCOC(CNc4cccc5c(N)nccc45)(C2)C3)cc2nccn12` [Example 10925, N5-((5-(((5-methylimidazo[1,2-a]pyridin-7-yl)oxy)methyl)-2-oxabicyclo[3.1.1]heptan-1-yl)methyl)isoquinoline-1,5-diamine], the half-maximal inhibitory concentration (IC50) at Human Factor XIIa fell in the range of 0.01 to 0.1 µM; on KLK1, 3 to 10 µM.

On to `Nc1nccc2c(NCC34CC(COc5ncccn5)(CCO3)C4)cccc12` [Example 10912, N5-((5-((pyrimidin-2-yloxy)methyl)-2-oxabicyclo[3.1.1]heptan-1-yl)methyl)isoquinoline-1,5-diamine], for which the concentration for half-maximal inhibition (IC50) was more than 40 µM at Plasma Kallikrein and 10 to 40 µM on Human Factor XIIa.

Take `Nc1nccc2c(NCC34CC(COc5cc(Cl)c6nccn6c5)(CCO3)C4)cccc12` [Example 10924, N5-((5-(((8-chloroimidazo[1,2-a]pyridin-6-yl)oxy)methyl)-2-oxabicyclo[3.1.1]heptan-1-yl)methyl)isoquinoline-1,5-diamine]: the values for the IC50 on Human Factor XIIa and on KLK1 were 0.1 to 0.3 µM and 3 to 10 µM, respectively.

In the case of `Nc1nccc2c(NCC34CC(COC5CCn6ccnc6C5)(CCO3)C4)cccc12` (stereo not shown) [Example 10903, N5-((5-(((5,6,7,8-tetrahydroimidazo[1,2-a]pyridin-7-yl)oxy)methyl)-2-oxabicyclo[3.1.1]heptan-1-yl)methyl)isoquinoline-1,5-diamine], the IC50 on Plasma Kallikrein was more than 4 µM; at Human Factor XIIa it was 0.3 to 1 µM.

As for `Nc1nccc2c(NCC34CC(COc5ccc6ncc(C(F)(F)F)n6c5)(CO3)C4)cccc12` [Example 6627, N5-((4-(((3-(trifluoromethyl)imidazo[1,2-a]pyridin-6-yl)oxy)methyl)-2-oxabicyclo[2.1.1]hexan-1-yl)methyl)isoquinoline-1,5-diamine], the half-inhibitory concentration (IC50) at Human Factor XIIa is 1 to 3 µM; against KLK1, 3 to 10 µM.

For the compound `Nc1nccc2c(NCC34CC(COc5ccc6nccn6n5)(CO3)C4)cccc12` [Example 6612, N5-((4-((imidazo[1,2-b]pyridazin-6-yloxy)methyl)-2-oxabicyclo[2.1.1]hexan-1-yl)methyl)isoquinoline-1,5-diamine], the half-inhibitory concentration (IC50) at Plasma Kallikrein was more than 40 µM; on Human Factor XIIa, 1 to 3 µM.

With `CC1(C)OC2(COc3cccc4c(N)nccc34)CC1(COc1ccc3nccn3c1)C2` [Example 7704, 5-((4-((imidazo[1,2-a]pyridin-6-yloxy)methyl)-3,3-dimethyl-2-oxabicyclo[2.1.1]hexan-1-yl)methoxy)isoquinolin-1-amine], the IC50 at Plasma Kallikrein was more than 40 µM; on Human Factor XIIa, 0.3 to 1 µM.

On to `N#Cc1cnc(OCC23CC(CNc4cccc5c(N)nccc45)(CO2)C3)nc1` [Example 2208, 2-((4-(((1-aminoisoquinolin-5-yl)amino)methyl)-2-oxabicyclo[2.1.1]hexan-1-yl)methoxy)pyrimidine-5-carbonitrile], for which the 50% inhibitory concentration (IC50) was more than 40 µM at Plasma Kallikrein and 3 to 10 µM at Human Factor XIIa.

`Nc1nccc2c(NCC34CC(COc5ccccn5)(CCO3)C4)cccc12` [Example 10914, N5-((5-((pyridin-2-yloxy)methyl)-2-oxabicyclo[3.1.1]heptan-1-yl)methyl)isoquinoline-1,5-diamine]: the IC50 at Plasma Kallikrein is more than 40 µM; on Human Factor XIIa, 3 to 10 µM.

For the compound `CN1Cc2ccc(OCC34COC(CNc5cccc6c(N)nccc56)(C3)C4)cc2C1=O` [Example 6628, 6-((1-(((1-aminoisoquinolin-5-yl)amino)methyl)-2-oxabicyclo[2.1.1]hexan-4-yl)methoxy)-2-methylisoindolin-1-one], the half-inhibitory concentration (IC50) at Human Factor XIIa lay within 0.1 to 0.3 µM; at KLK1, 3 to 10 µM.

Regarding `Nc1nccc2c(N3CCC4(CC(OCc5ccn6ccnc6c5)C4)C3)cccc12` (stereo not shown) [Example 8803, 5-(2-(imidazo[1,2-a]pyridin-7-ylmethoxy)-6-azaspiro[3.4]octan-6-yl)isoquinolin-1-amine], the IC50 at Plasma Kallikrein was more than 40 µM; at Human Factor XIIa it was 1 to 3 µM.

As for `Nc1nccc2c(NCC34COC(COc5ccn6c(C(F)(F)F)nnc6c5)(C3)C4)cccc12` [Example 2206, N5-((1-(((3-(trifluoromethyl)-[1,2,4]triazolo[4,3-a]pyridin-7-yl)oxy)methyl)-2-oxabicyclo[2.1.1]hexan-4-yl)methyl)isoquinoline-1,5-diamine], the values for the 50% inhibitory concentration (IC50) on Plasma Kallikrein and on Human Factor XIIa were more than 40 µM and 1 to 3 µM, respectively.
